Assay results from patent US20180303809A1, “TREATMENT OF BURN PAIN BY TRPV1 MODULATORS” (Purdue Pharma L.P., priority 2013, published 2018).

How the values were obtained:
Format in all cases: in vivo, rat
male Sprague-Dawley rats [1] = experiment: Paw pressure assay, mechanical hyperalgesia (PWT) in thermal burn pain model; details: rat burn injury 55° C. 24 s, 10 mg/kg PO
Method: (§1) Test Animals: Each experiment used male Sprague-Dawley rats weighing between 190-260 g at the time of thermal burn injury. The rats were housed two per cage, and were allowed to acclimate to their environment for at least six days before testing began. The rats had free access to food and water at all times, except during testing and prior to oral (PO) administration of a test compound, when food was removed about 16 hours before dosing. The rats were divided into treatment groups, and one of the following compounds was administered to each group at the dose and by the route of administration indicated in Tables 5.2A to 5.2C, 5.3A and 5.3B, and 5.4A and 5.4B: ketorolac (Sigma-Aldrich, St. Louis, Mo.), AMG 517 (selective TRPV1 antagonist described in Em. Doherty et al., “Novel vanilloid receptor-1 antagonists:2. Structure-activity relationships of 4-oxopyrimidines leading to the selection of a clinical candidate,” J Med Chem 50:3515-3527 (2007).) (Purdue Pharma L. P., Cranbury, N.J.), indomethacin (Alexis Biochemicals, Farmingdale, N.Y.), gabapentin (Bosche Scientific, New Brunswick, N.J.), or (S)-3-chloro-5-(1,2-dihydroxyethyl)-N-(5-(trifluoromethyl)pyridin-2-yl)-5′,6′-dihydro-[2,4′-bipyridine]-1′(2′H)-carboxamide (Compound 1). The control groups were administered the vehicle for the compound of formula (I). The volume of administration for PO treatment was 5 ml/kg, and was the same for all treatment groups. Volume of administration for intraperitoneal (i.p.) drug administration was 2 ml/kg.
(§2) To assess the actions of a compound of formula (I) for the treatment or prevention of burn pain, a model of thermal burn pain was used. A thermal burn injury was induced under isofluorane/O2 inhalation anesthesia. To assess mechanical hyperalgesia and weight bearing, a thermal injury was produced by immersing the left hind paw into water maintained at 55° C. for 24 seconds. The left hind paw of non-injured control animals was immersed in 22° C. water for 24 seconds. To assess thermal hyperalgesia, a thermal injury was produced by immersing the left hindpaw into water maintained at 50° C. for 48 seconds; the left hind-paw of non-injured control animals was immersed in 22° C. water for 48 seconds. The animals were assessed for response to noxious mechanical stimuli by determining PWT for mechanical hyperalgesia, weight bearing difference between the injured or non-injured side, or response to noxious thermal stimuli by determining PWL for thermal hyperalgesia, all as described below, prior to drug administration (baseline), then again at 1, 3 and 5 hours after induction of burn injury.
The paw pressure assay was used to assess mechanical hyperalgesia. For this assay, hind paw withdrawal thresholds (PWT) to a noxious mechanical stimulus were determined using an analgesimeter (Model 7200, commercially available from Ugo Basile of Italy) as described in C. Stein, “Unilateral Inflammation of the Hindpaw in Rats as a Model of Prolonged Noxious Stimulation: Alterations in Behavior and Nociceptive Thresholds,” Pharmacol. Biochem. and Behavior 31:451-455 (1988). The rat's paw was placed on a small platform, and weight was applied in a graded manner up to a maximum of 250 grams. The endpoint was taken as the weight at which the paw was completely withdrawn. PWT was determined once for each rat at each time point, wherein the affected (ipsilateral; same side as the injury) rear paw was tested. […] All drug treatment groups were compared to the vehicle control group (i.e. injured, administered only the vehicle).

male Sprague-Dawley rats [2] = experiment: Plantar test, thermal hyperalgesia (PWL) in thermal burn pain model; details: rat burn injury 50° C. 48 s
Method: as §1, §2
The plantar test was used to assess thermal hyperalgesia. For this test, hind paw withdrawal latencies (PWL) to a noxious thermal stimulus were determined using a plantar test apparatus (commercially available from Ugo Basile of Italy) following the technique described by K. Hargreaves et al., “A New and Sensitive Method for Measuring Thermal Nociception in Cutaneous Hyperalgesia,” Pain 32(1):77-88 (1988). The maximum exposure time was set at 32 seconds to avoid tissue damage and any directed paw withdrawal from the heat source is taken as the end point. Three latencies were determined at each time point and averaged.

male Sprague-Dawley rats [3] = experiment: Hind limb weight bearing (incapacitance meter, % WL) in thermal burn pain model; details: rat burn injury 55° C. 24 s, 10 mg/kg PO
Method: as §1, §2
A commercially available incapacitance meter was used to determine the weight distribution on the two hind paws of the animal (Linton Incapacitance Tester (Linton Instrumentation, Norfolk, UK)). The weight bearing difference (WBD) between the injured and non-injured hindpaw was measured. The animal was placed in the testing chamber that allows the animal to stand normally, distributing its body weight on the hind limbs for the test. Each hind paw was positioned on a separate pressure sensitive pad, which independently measures the pressure applied by each limb. The device continuously collects data after either a force threshold has been exceeded, or the investigator depresses the start pad. Rats were allowed to acclimate when placed on the apparatus, and when they were stationary, the force exerted was then continuously monitored for 3 s. The endpoint was the amount of pressure applied to each limb over time. Three readings were taken for each rat at each time point, and the average used for data analysis. WBD was expressed as “% WL”, i.e. the percentage of weight borne on the burn-injured left hind paw, using the following formula: […]
where WLP is the weight on the left hind paw and WRP is the weight on the right (untreated) hind paw. The 50% value of % WL corresponds to an equal weight distribution across both hind paws. […]

[4] = baseline (prior to drug administration)
[5] = 10 mg/kg PO, 1 h after administration
[6] = 10 mg/kg PO, 3 h after administration
[7] = 10 mg/kg PO, 5 h after administration
[8] = 30 mg/kg PO, 1 h after administration
[9] = 30 mg/kg PO, 3 h after administration
[10] = 30 mg/kg PO, 5 h after administration

O=C(c1ccccc1)c1ccc2n1CCC2C(=O)O (stereo not shown) [Ketorolac, ketorolac]
% Decrease from Baseline (mean ± S.E.M.) of Paw Withdrawal Threshold (male Sprague-Dawley rats [1]; 1 h after administration): 66 ± 2.2%
Paw Withdrawal Threshold (g) (mean ± S.E.M.) (male Sprague-Dawley rats [1]; 1 h after administration): 84 ± 6.1 g
% Decrease from Baseline (mean ± S.E.M.) of Paw Withdrawal Threshold (male Sprague-Dawley rats [1]; 3 h after administration): 60 ± 3.8%
Paw Withdrawal Threshold (g) (mean ± S.E.M.) (male Sprague-Dawley rats [1]; 3 h after administration): 97 ± 7.5 g
% Decrease from Baseline (mean ± S.E.M.) of Paw Withdrawal Threshold (male Sprague-Dawley rats [1]; 5 h after administration): 63 ± 34%
Paw Withdrawal Threshold (g) (mean ± S.E.M.) (male Sprague-Dawley rats [1]; 5 h after administration): 91 ± 7.1 g
Paw Withdrawal Threshold (g) (mean ± S.E.M.) (male Sprague-Dawley rats [1]; [4]): 246 ± 4.5 g
% Change from Baseline (mean ± S.E.M.) of Paw Withdrawal Latency (male Sprague-Dawley rats [2]; [5]): −22.3 ± 6.30%
Paw Withdrawal Latency (sec) (mean ± S.E.M.) (male Sprague-Dawley rats [2]; [5]): 9.2 ± 0.96 s
% Change from Baseline (mean ± S.E.M.) of Paw Withdrawal Latency (male Sprague-Dawley rats [2]; [6]): −6.7 ± 5.55%
Paw Withdrawal Latency (sec) (mean ± S.E.M.) (male Sprague-Dawley rats [2]; [6]): 11.9 ± 1.27 s
% Change from Baseline (mean ± S.E.M.) of Paw Withdrawal Latency (male Sprague-Dawley rats [2]; [7]): −10.2 ± 3.05%
Paw Withdrawal Latency (sec) (mean ± S.E.M.) (male Sprague-Dawley rats [2]; [7]): 11.4 ± 0.54 s
Paw Withdrawal Latency (sec) (mean ± S.E.M.) (male Sprague-Dawley rats [2]; 10 mg/kg PO, baseline (prior to drug administration)): 13.2 ± 0.72 s
% Change from Baseline (mean ± S.E.M.) of Paw Withdrawal Latency (male Sprague-Dawley rats [2]; [8]): −47.6 ± 19.35%
Paw Withdrawal Latency (sec) (mean ± S.E.M.) (male Sprague-Dawley rats [2]; [8]): 8.5 ± 0.89 s
% Change from Baseline (mean ± S.E.M.) of Paw Withdrawal Latency (male Sprague-Dawley rats [2]; [9]): −24.0 ± 19.85%
Paw Withdrawal Latency (sec) (mean ± S.E.M.) (male Sprague-Dawley rats [2]; [9]): 12.6 ± 1.33 s
% Change from Baseline (mean ± S.E.M.) of Paw Withdrawal Latency (male Sprague-Dawley rats [2]; [10]): −10.2 ± 12.40%
Paw Withdrawal Latency (sec) (mean ± S.E.M.) (male Sprague-Dawley rats [2]; [10]): 14.3 ± 0.80 s
Paw Withdrawal Latency (sec) (mean ± S.E.M.) (male Sprague-Dawley rats [2]; 30 mg/kg PO, baseline (prior to drug administration)): 14.7 ± 1.29 s
% WL (mean ± S.E.M.), percentage of weight borne on the burn-injured left hind paw (male Sprague-Dawley rats [3]; 1 h after administration): 50.0 ± 2.20 %
% WL (mean ± S.E.M.), percentage of weight borne on the burn-injured left hind paw (male Sprague-Dawley rats [3]; 3 h after administration): 42.6 ± 1.91%
% WL (mean ± S.E.M.), percentage of weight borne on the burn-injured left hind paw (male Sprague-Dawley rats [3]; 5 h after administration): 40.1 ± 2.72%
% WL (mean ± S.E.M.), percentage of weight borne on the burn-injured left hind paw (male Sprague-Dawley rats [3]; [4]): 49.8 ± 0.31%
